In BigSolDB 2.1:

CCC(CO)(CO)C(=O)O
solubility (mole fraction)
Conditions	in 1,4-dioxane	in MIBK	in cyclopentyl methyl ether	in ethyl acetate	in gamma-butyrolactone	in n-butyl acetate	in toluene
298.15 K	0.122	0.0218	0.0121	0.0111	0.0688	0.0119	0.00039
303.15 K	0.153	0.0297	0.013	0.0184	0.0859	0.0125	0.00056
308.15 K	0.176	0.0362	0.0168	0.0228	0.105	0.0129	0.00073
313.15 K	0.201	0.0433	0.0208	0.0281	0.136	0.0153	0.0008
318.15 K	0.217	0.0523	0.0266	0.0338	0.151	0.0228	0.00087
323.15 K	0.259	0.0575	0.032	0.0443	0.173	0.0317	0.00093
328.15 K	0.324	0.07	0.0374	0.0539	0.212	0.0379	0.00093
333.15 K	–	0.077	0.0425	0.0612	0.232	0.0477	0.00099
338.15 K	–	0.0891	0.054	0.069	0.263	0.0619	0.00105
343.15 K	–	0.11	0.0674	–	–	0.0768	–
345.15 K	–	0.121	0.0749	–	–	0.093	–
348.15 K	–	0.132	0.0917	–	–	0.111	–
350.15 K	–	0.156	0.107	–	–	0.132	–
353.15 K	–	0.184	0.133	–	–	0.169	–
